This is an account of results in US9296693B2, “Acyl piperidine inhibitors of soluble epoxide hydrolase” (The Regents of the University of California, priority 2010, dated 2016).

What is called IC50 is the concentration that gives 50% inhibition.

The target in assay [1] is Human sEH (Homo sapiens (Human), UniProt P34913). Description: fluorescent based IC50 assay (CMNPC substrate), recombinant human sEH.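 Note: enzyme preincubated with inhibitor for 5 min before adding substrate, in 25 mM Bis-Tris/HCl buffer supplemented with 0.1 mg/mL BSA.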
In assay [2] the target is murine sEH (Mus musculus (Mouse), UniProt P34914). Description: fluorescent based IC50 assay (CMNPC substrate), recombinant murine sEH. It counts as biochemical. To be noted: homogenous recombinant murine sEH 1 nM, CMNPC 5 μM, pH 7.0, 30° C., average of three replicates.
Setting [3] is: read-out: IC50 (nM) Human, homogenous recombinant human sEH 1 nM, CMNPC 5 μM, pH 7.0, 30° C., average of three replicates.

Structures are written as SMILES. “And” between values parts separate entries of the source, which are not always exact repeats. Identical values can stand only once. Like-named read-outs stand apart in the source and are kept apart here. Where only a bound is given, the exact number is not on record here.

murine sEH, sequence (P34914 whole entry): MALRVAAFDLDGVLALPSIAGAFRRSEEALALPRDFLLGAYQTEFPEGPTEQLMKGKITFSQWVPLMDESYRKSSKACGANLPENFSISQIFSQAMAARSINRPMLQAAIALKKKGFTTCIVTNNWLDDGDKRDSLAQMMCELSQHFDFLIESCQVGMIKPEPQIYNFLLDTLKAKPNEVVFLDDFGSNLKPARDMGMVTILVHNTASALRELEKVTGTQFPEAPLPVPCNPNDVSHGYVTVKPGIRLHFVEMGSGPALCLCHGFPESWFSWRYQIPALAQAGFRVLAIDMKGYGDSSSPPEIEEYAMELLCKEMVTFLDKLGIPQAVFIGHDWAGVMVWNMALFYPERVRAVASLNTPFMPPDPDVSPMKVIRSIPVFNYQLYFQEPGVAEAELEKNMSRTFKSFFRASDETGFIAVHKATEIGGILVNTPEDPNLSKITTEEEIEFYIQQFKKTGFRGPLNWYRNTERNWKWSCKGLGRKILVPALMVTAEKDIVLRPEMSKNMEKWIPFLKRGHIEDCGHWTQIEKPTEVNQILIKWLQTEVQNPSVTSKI
Human sEH, sequence (P34913 whole entry): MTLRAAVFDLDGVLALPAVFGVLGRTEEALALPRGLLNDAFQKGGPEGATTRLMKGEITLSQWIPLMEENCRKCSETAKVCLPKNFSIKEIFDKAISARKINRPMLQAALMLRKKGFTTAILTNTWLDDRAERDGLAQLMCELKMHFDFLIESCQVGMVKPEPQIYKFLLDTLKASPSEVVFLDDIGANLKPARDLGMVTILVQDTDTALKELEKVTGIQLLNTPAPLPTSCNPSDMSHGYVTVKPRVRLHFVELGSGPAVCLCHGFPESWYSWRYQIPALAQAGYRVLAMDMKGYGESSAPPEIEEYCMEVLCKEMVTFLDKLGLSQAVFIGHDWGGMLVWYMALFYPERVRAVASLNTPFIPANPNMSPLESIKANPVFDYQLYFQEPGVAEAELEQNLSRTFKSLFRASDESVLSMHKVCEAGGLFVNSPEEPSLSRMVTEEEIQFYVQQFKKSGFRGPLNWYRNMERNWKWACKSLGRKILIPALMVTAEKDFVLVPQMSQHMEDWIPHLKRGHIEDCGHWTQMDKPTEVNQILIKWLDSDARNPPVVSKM

`CCC(=O)N1CCC(NC(=O)NC23CC4CC(CC(C4)C2)C3)CC1` [Compound 2, 1-(1-Adamantyl)-3-(1-propionylpiperidin-4-yl)urea]: the values for the IC50 in assay [1] (setting [3]) and in assay [2] were 2.8 nM and 1.2 nM, respectively.

Consider `CCC(=O)N1CCC(NC(=O)NC2CCCCCC2)CC1` [Compound 3, 1-Cycloheptyl-3-(1-propionylpiperidin-4-yl)urea], for which the values for the IC50 in assay [1] (setting [3]) and in assay [2] were 3.9 nM and 0.9 nM, respectively. For `CCC(=O)N1CCC(NC(=O)NC2CCCCC2)CC1` [Compound 4, 1-Cyclohexyl-3-(1-propionylpiperidin-4-yl)urea], the concentration for half-maximal inhibition (IC50) in assay [1] (setting [3]) was found to be 12 nM; in assay [2], 3.5 nM. Take `CCCCCCCCNC(=O)NC1CCN(C(=O)CC)CC1` [Compound 5, 1-Octyl-3-(1-propionylpiperidin-4-yl)urea]: the half-inhibitory concentration (IC50) was 3.2 nM in assay [1] (setting [3]) and 0.4 nM in assay [2]. On to `CCC(=O)N1CCC(NC(=O)Nc2ccccc2)CC1` [Compound 7, 1-Phenyl-3-(1-propionylpiperidin-4-yl)urea], for which the IC50 was 130 nM in assay [1] (setting [3]) and 49 nM in assay [2]. With `CCC(=O)N1CCC(NC(=O)Nc2ccc3ccccc3c2)CC1` [Compound 8, 1-(Naphthalen-2-yl)-3-(1-propionylpiperidin-4-yl)urea], the IC50 was determined as 3 nM in assay [1] (setting [3]) and 4.2 nM in assay [2]. For `CCC(=O)N1CCC(NC(=O)Nc2ccccc2C)CC1` [Compound 10, 1-(1-Propionylpiperidin-4-yl)-3-o-tolylurea], the 50% inhibitory concentration (IC50) is 1700 nM in assay [1] (setting [3]); > 5000 nM and 5100 nM in assay [2]. On to `CCC(=O)N1CCC(NC(=O)Nc2cccc(C)c2)CC1` [Compound 11], for which the IC50 in assay [1] (setting [3]) came out at 40 nM; in assay [2] it was 8.7 nM.

Regarding `CCC(=O)N1CCC(NC(=O)Nc2ccc(CC)cc2)CC1` [Compound 13, 1-(4-Ethylphenyl)-3-(1-propionylpiperidin-4-yl)urea], the IC50 in assay [1] (setting [3]) amounted to 8.3 nM; in assay [2], 1.3 nM. Take `CCC(=O)N1CCC(NC(=O)Nc2ccc(C(C)C)cc2)CC1` [Compound 14, 1-(4-Isopropylphenyl)-3-(1-propionylpiperidin-4-yl)urea]: the IC50 in assay [1] (setting [3]) amounted to 2.8 nM; in assay [2], 3.3 nM. As for `CCC(=O)N1CCC(NC(=O)Nc2ccc(OC)cc2)CC1` [Compound 15, 1-(4-Methoxyphenyl)-3-(1-propionylpiperidin-4-yl)urea], the results for the IC50 in assay [1] (setting [3]) and in assay [2] were 87 nM and 8.7 nM, respectively. For `CCC(=O)N1CCC(NC(=O)Nc2ccc(Oc3ccccc3)cc2)CC1` [Compound 16, 1-(4-Phenoxyphenyl)-3-(1-propionylpiperidin-4-yl)urea], the values for the half-maximal inhibitory concentration (IC50) in assay [1] (setting [3]) and in assay [2] were 3.5 nM and 0.4 nM, respectively. Regarding `CCC(=O)N1CCC(NC(=O)Nc2cc(OC)c(OC)c(OC)c2)CC1` [Compound 18, 1-(1-Propionylpiperidin-4-yl)-3-(3,4,5-trimethoxyphenyl)urea], the half-inhibitory concentration (IC50) was more than 5000 nM in assay [1] (setting [3]); > 5000 nM and 25000 nM in assay [2]. On to `CCC(=O)N1CCC(NC(=O)Nc2ccc(N3CCOCC3)cc2)CC1` [Compound 19, 1-(4-Morpholinophenyl)-3-(1-propionylpiperidin-4-yl)urea], for which the figures for the IC50 in assay [1] (setting [3]) and in assay [2] were 2000 nM and 650 nM, respectively.

Consider `CCC(=O)N1CCC(NC(=O)Nc2ccc([N+](=O)[O-])cc2)CC1` [Compound 20, 1-(4-Nitrophenyl)-3-(1-propionylpiperidin-4-yl)urea], for which, in assay [2], the concentration for half-maximal inhibition (IC50) came to 97 nM. On to `CCC(=O)N1CCC(NC(=O)Nc2ccc(C(=O)O)cc2)CC1` [Compound 22, 4-(3-(1-Propionylpiperidin-4-yl)ureido)benzoic acid], for which the values for the IC50 in assay [1] (setting [3]) and in assay [2] were 330 nM and 1000 nM, respectively.

In the case of `CCC(=O)N1CCC(NC(=O)Nc2ccc(O)cc2)CC1` [Compound 23, 1-(4-Hydroxyphenyl)-3-(1-propionylpiperidin-4-yl)urea], in assay [2], the IC50 amounted to 1400 nM.

`CCC(=O)N1CCC(NC(=O)Nc2ccc(Cl)cc2)CC1` [Compound 25, 1-(4-Chlorophenyl)-3-(1-propionylpiperidin-4-yl)urea]: the IC50 in assay [1] (setting [3]) stood at 10 nM; in assay [2], 23 nM. As for `CCC(=O)N1CCC(NC(=O)Nc2ccc(Br)cc2)CC1` [Compound 26, 1-(4-Bromophenyl)-3-(1-propionylpiperidin-4-yl)urea], the 50% inhibitory concentration (IC50) came to 3.6 nM in assay [1] (setting [3]) and 15 nM in assay [2]. Take `CCC(=O)N1CCC(NC(=O)Nc2ccc(I)cc2)CC1` [Compound 27, 1-(4-Iodophenyl)-3-(1-propionylpiperidin-4-yl)urea]: the IC50 is 7.2 nM in assay [1] (setting [3]) and 1.4 nM in assay [2].

In the case of `CCC(=O)N1CCC(NC(=O)Nc2cccc(F)c2)CC1` [Compound 28, 1-(3-Fluorophenyl)-3-(1-propionylpiperidin-4-yl)urea], the IC50 is 39 nM in assay [1] (setting [3]) and 20 nM in assay [2]. With `CCC(=O)N1CCC(NC(=O)Nc2ccccc2F)CC1` [Compound 29, 1-(2-Fluorophenyl)-3-(1-propionylpiperidin-4-yl)urea], the IC50 came to 300 nM in assay [1] (setting [3]) and 780 nM in assay [2].

For `CCC(=O)N1CCC(NC(=O)Nc2cccc(Cl)c2)CC1` [Compound 30, 1-(3-Chlorophenyl)-3-(1-propionylpiperidin-4-yl)urea], the results for the 50% inhibitory concentration (IC50) in assay [1] (setting [3]) and in assay [2] were 21 nM and 6.6 nM, respectively. In the case of `CCC(=O)N1CCC(NC(=O)Nc2ccccc2Cl)CC1` [Compound 31, 1-(2-Chlorophenyl)-3-(1-propionylpiperidin-4-yl)urea], the IC50 in assay [1] (setting [3]) stood at 1100 nM; in assay [2], 2900 nM. `CCC(=O)N1CCC(NC(=O)Nc2ccc(Cl)c(Cl)c2)CC1` [Compound 32, 1-(3,4-Dichlorophenyl)-3-(1-propionylpiperidin-4-yl)urea]: the IC50 in assay [1] (setting [3]) is 3.4 nM; in assay [2], 0.6 nM. For `CCC(=O)N1CCC(NC(=O)Nc2cc(Cl)cc(Cl)c2)CC1` [Compound 33, 1-(3,5-Dichlorophenyl)-3-(1-propionylpiperidin-4-yl)urea] the same measures were 0.4 nM and 1 nM.

`CCC(=O)N1CCC(NC(=O)Nc2c(Cl)cccc2Cl)CC1` [Compound 34, 1-(2,6-Dichlorophenyl)-3-(1-propionylpiperidin-4-yl)urea]: the IC50 in assay [1] is more than 5000 nM; in assay [1] (setting [3]), more than 50000 nM; in assay [2], > 5000 nM and 38000 nM. As to `CCC(=O)N1CCC(NC(=O)Nc2ccc(Cl)c(C(F)(F)F)c2)CC1` [Compound 35, 1-(4-Chloro-3-(trifluoromethyl)phenyl)-3-(1-propionylpiperidin-4-yl)urea], the figures for the IC50 in assay [1] (setting [3]) and in assay [2] were 4.1 nM and 2.3 nM, respectively. `CCC(=O)N1CCC(NC(=O)Nc2ccc(C(F)(F)F)cc2)CC1` [Compound 36, 1-(1-Propionylpiperidin-4-yl)-3-(4-(trifluoromethyl)phenyl)urea]: in assay [2], the IC50 is 6.5 nM. Regarding `CCC(=O)N1CCC(NC(=O)Nc2cccc(C(F)(F)F)c2)CC1` [Compound 37, 1-(1-Propionylpiperidin-4-yl)-3-(3-(trifluoromethyl)phenyl)urea], the results for the half-inhibitory concentration (IC50) in assay [1] (setting [3]) and in assay [2] were 17 nM and 8.8 nM, respectively. For `CCC(=O)N1CCC(NC(=O)Nc2ccc(C(F)(C(F)(F)F)C(F)(F)F)cc2)CC1` [Compound 38, 1-(4-Perfluoroisopropylphenyl)-3-(1-propionylpiperidin-4-yl)urea], the half-inhibitory concentration (IC50) in assay [1] (setting [3]) turned out to be 0.4 nM; in assay [2], 0.7 nM.

Regarding `CCC(=O)N1CCC(NC(=O)Nc2ccc(C(F)(C(F)(F)F)C(F)(F)F)cc2C)CC1` [Compound 39, 1-(2-Methyl-4-perfluoroisopropylphenyl)-3-(1-propionylpiperidin-4-yl)urea], the half-maximal inhibitory concentration (IC50) in assay [1] (setting [3]) came out at 17 nM; in assay [2] it was 28 nM.

For `O=C(Nc1ccc(OC(F)(F)F)cc1)NC1CCN(C(=O)c2ccncc2)CC1` [Compound 47, 1-(1-Isonicotinoylpiperidin-4-yl)-3-(4-(trifluoromethoxy)phenyl)urea], the values for the concentration for half-maximal inhibition (IC50) in assay [1] (setting [3]) and in assay [2] were 0.7 nM and 1.3 nM, respectively. For `O=C(Nc1ccc(OC(F)(F)F)cc1)NC1CCN(C(=O)c2ccc(Cl)nc2)CC1` [Compound 48, 1-(1-(6-Chloronicotinoyl)piperidin-4-yl)-3-(4-(trifluoromethoxy)phenyl) urea] the same measures were 0.6 nM and 0.7 nM.

For the compound `O=C(Nc1ccc(OC(F)(F)F)cc1)NC1CCN(C(=O)Cc2ccccn2)CC1` [Compound 49, 1-(((Pyridin-2-yl)acetyl)piperidin-4-yl)-3-(4-(trifluoromethoxy)phenyl) urea], the concentration for half-maximal inhibition (IC50) in assay [1] (setting [3]) was found to be 3.1 nM; in assay [2], 5 nM.

As to `CC(=O)N1CCN(CC(=O)N2CCC(NC(=O)Nc3ccc(OC(F)(F)F)cc3)CC2)CC1` [Compound 51, 1-(1-((4-Acetylpiperazin-1-yl)acetyl)piperidin-4-yl)-3-(4-(trifluoromethoxy)phenyl)urea], the figures for the IC50 in assay [1] (setting [3]) and in assay [2] were 0.5 nM and 1.2 nM, respectively. For `O=C(Nc1ccc(OC(F)(F)F)cc1)NC1CCN(C(=O)C2CC2)CC1` [Compound 52, 1-(1-(Cyclopropanecarbonyl)piperidin-4-yl)-3-(4-(trifluoromethoxy)phenyl) urea], the 50% inhibitory concentration (IC50) in assay [2] amounted to 0.4 nM. Same read-out and setting: the value for `O=C(Nc1ccc(OC(F)(F)F)cc1)NC1CCN(C(=O)C(F)(F)F)CC1` [Compound 53, 1-(1-(Trifluoroacetyl)piperidin-4-yl)-3-(4-(trifluoromethoxy)phenyl) urea] was 0.4 nM. For `CS(=O)(=O)N1CCC(NC(=O)Nc2ccc(OC(F)(F)F)cc2)CC1` [Compound 55, 1-(1-(Methylsulfonyl)piperidin-4-yl)-3-(4-(trifluoromethoxy)phenyl)urea], the results for the half-maximal inhibitory concentration (IC50) in assay [1] (setting [3]) and in assay [2] were 2.9 nM and 2 nM, respectively.

On to `CCS(=O)(=O)N1CCC(NC(=O)Nc2ccc(OC(F)(F)F)cc2)CC1` [Compound 56, 1-(1-(Ethylsulfonyl)piperidin-4-yl)-3-(4-(trifluoromethoxy)phenyl)urea], for which the figures for the half-maximal inhibitory concentration (IC50) in assay [1] (setting [3]) and in assay [2] were 0.4 nM and 0.7 nM, respectively. Turning to `Cc1ccc(S(=O)(=O)N2CCC(NC(=O)Nc3ccc(OC(F)(F)F)cc3)CC2)cc1` [Compound 58, 1-(1-Tosylpiperidin-4-yl)-3-(4-(trifluoromethoxy)phenyl)urea], the half-inhibitory concentration (IC50) in assay [2] was 0.4 nM.
